Numbered stars: 1 amine (or outer) side, 2 acyl side, 3 side chain; on linkers, the order of the positions; unused ones are H or OH. Side chains are listed from the residue outwards. Peptide text beside a SMILES is read from it. * marks the point of attachment. γGlu = O=C(O)[C@H](CCC(=O)[*:2])N[*:1]; Lauroyl = CCCCCCCCCCCC(=O)*; Octanoyl = CCCCCCCC(=O)*; Propionyl = CCC(=O)*
Assays:
Assay type in all cases: cell-based
hY5R = molecular target: T1, hY5R (Homo sapiens, UniProt Q15761); experiment: Inositol phosphate accumulation assay, hY5R; details: for Emax: read-out: hY5R Emax
T1 sequence (Q15761 1-445): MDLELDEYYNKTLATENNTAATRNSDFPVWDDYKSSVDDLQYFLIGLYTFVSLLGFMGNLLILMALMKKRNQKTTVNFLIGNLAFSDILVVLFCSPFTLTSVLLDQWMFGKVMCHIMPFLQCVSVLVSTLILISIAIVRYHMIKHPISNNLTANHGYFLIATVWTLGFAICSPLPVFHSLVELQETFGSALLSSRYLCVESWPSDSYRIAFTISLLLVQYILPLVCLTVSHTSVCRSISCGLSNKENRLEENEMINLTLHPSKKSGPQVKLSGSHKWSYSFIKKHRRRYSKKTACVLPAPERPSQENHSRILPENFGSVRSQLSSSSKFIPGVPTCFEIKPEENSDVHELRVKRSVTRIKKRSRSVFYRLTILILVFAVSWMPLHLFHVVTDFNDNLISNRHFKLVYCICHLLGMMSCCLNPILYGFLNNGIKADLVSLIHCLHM

hY4R = hY4R (Homo sapiens, UniProt P50391); experiment: Inositol phosphate accumulation assay, hY4R; details: for Emax: read-out: hY4R Emax
hY1R = molecular target: T2, hY1R (Homo sapiens, UniProt P25929); experiment: Inositol phosphate accumulation assay, hY1R; details: for Emax: read-out: hY1R Emax
T2 sequence (P25929 1-384): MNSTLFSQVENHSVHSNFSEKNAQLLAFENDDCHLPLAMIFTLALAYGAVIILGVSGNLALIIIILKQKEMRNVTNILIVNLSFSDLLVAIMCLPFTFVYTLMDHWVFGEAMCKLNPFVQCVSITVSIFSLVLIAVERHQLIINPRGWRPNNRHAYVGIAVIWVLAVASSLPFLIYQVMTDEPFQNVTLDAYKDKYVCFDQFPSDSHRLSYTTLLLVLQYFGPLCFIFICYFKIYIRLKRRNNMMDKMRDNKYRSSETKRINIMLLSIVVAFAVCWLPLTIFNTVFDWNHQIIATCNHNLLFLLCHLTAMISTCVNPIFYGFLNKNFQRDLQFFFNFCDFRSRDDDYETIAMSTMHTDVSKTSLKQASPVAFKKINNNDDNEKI

hY2R = molecular target: T3, hY2R (Homo sapiens, UniProt P49146); experiment: Inositol phosphate accumulation assay, hY2R; details: for Emax: read-out: hY2R Emax
T3 sequence (P49146 1-381): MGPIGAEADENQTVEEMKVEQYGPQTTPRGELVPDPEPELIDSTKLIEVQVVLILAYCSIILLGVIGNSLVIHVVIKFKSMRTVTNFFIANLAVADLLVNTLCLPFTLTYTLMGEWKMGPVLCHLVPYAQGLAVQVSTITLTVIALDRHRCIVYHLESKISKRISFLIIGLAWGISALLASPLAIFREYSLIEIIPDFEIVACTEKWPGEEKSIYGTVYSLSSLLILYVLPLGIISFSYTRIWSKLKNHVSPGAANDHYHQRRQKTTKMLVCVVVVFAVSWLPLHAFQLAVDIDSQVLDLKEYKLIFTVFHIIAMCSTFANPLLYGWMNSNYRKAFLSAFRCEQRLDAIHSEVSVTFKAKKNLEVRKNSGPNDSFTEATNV

hY4R, sequence (P50391 whole entry): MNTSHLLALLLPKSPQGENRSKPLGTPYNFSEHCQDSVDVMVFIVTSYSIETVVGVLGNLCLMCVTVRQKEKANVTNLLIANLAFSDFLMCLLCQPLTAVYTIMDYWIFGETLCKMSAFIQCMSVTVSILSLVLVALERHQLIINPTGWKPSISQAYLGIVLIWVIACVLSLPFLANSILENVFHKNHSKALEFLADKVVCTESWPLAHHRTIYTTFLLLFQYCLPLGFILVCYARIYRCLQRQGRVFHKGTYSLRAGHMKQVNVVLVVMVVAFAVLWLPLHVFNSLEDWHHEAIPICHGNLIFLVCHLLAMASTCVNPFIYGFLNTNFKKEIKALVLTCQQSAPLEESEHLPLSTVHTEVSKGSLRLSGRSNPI

SMILES	EC50 (hY5R) [nM]	Emax (hY5R) [%]	EC50 (hY4R) [nM]	Emax (hY4R) [%]	EC50 (hY1R) [nM]	Emax (hY1R) [%]	EC50 (hY2R) [nM]	Emax (hY2R) [%]
CCCCCCCCCCCC(=O)N[C@@H](CCC(=O)NCCCC[C@H](NC(=O)[C@H](CC(N)=O)NC(=O)[C@@H](NC(=O)[C@H](Cc1ccc(O)cc1)NC(=O)[C@H](CCCNC(=N)N)NC(=O)[C@H](CCCNC(=N)N)NC(=O)[C@H](CC(C)C)NC(=O)[C@H](CC(=O)O)NC(=O)[C@H](C)NC(=O)[C@H](C)NC(=O)[C@H](Cc1ccc(O)cc1)NC(=O)[C@H](CCC(N)=O)NC(=O)[C@H](C)NC(=O)[C@H](CCSC)NC(=O)[C@H](CCC(N)=O)NC(=O)[C@H](CCC(=O)O)NC(=O)[C@@H]1CCCN1C(=O)[C@@H](NC(=O)[C@H](C)NC(=O)[C@H](CC(N)=O)NC(=O)[C@H](CC(=O)O)NC(=O)CNC(=O)[C@@H]1CCCN1C(=O)[C@H](Cc1ccc(O)cc1)NC(=O)[C@@H](NC(=O)[C@@H]1CCCN1C(=O)[C@H](CCC(=O)O)NC(=O)[C@H](CC(C)C)NC(=O)[C@@H]1CCCN1)C(C)C)[C@@H](C)O)[C@@H](C)CC)C(=O)N[C@@H](CC(C)C)C(=O)N[C@H](C(=O)N[C@@H](CCCNC(=N)N)C(=O)N1CCC[C@H]1C(=O)N[C@@H](CCCNC(=N)N)C(=O)N[C@@H](Cc1ccc(O)cc1)C(N)=O)[C@@H](C)O)C(=O)O [compound 17, [K^30(E-Laur)]hPP2–36] (H-PLEPVYPGDNATPEQMAQYAADLRRYINK([γGlu-Lauroyl])LTRPRY-NH2)	38.8	81 ± 5	3.6	83 ± 5	> 1000	81 ± 4	296	98 ± 4
CCC(=O)N[C@@H](CCC(=O)NCCCC[C@H](NC(=O)[C@H](CC(N)=O)NC(=O)[C@@H](NC(=O)[C@H](Cc1ccc(O)cc1)NC(=O)[C@H](CCCNC(=N)N)NC(=O)[C@H](CCCNC(=N)N)NC(=O)[C@H](CC(C)C)NC(=O)[C@H](CC(=O)O)NC(=O)[C@H](C)NC(=O)[C@H](C)NC(=O)[C@H](Cc1ccc(O)cc1)NC(=O)[C@H](CCC(N)=O)NC(=O)[C@H](C)NC(=O)[C@H](CCSC)NC(=O)[C@H](CCC(N)=O)NC(=O)[C@H](CCC(=O)O)NC(=O)[C@@H]1CCCN1C(=O)[C@@H](NC(=O)[C@H](C)NC(=O)[C@H](CC(N)=O)NC(=O)[C@H](CC(=O)O)NC(=O)CNC(=O)[C@@H]1CCCN1C(=O)[C@H](Cc1ccc(O)cc1)NC(=O)[C@@H](NC(=O)[C@@H]1CCCN1C(=O)[C@H](CCC(=O)O)NC(=O)[C@H](CC(C)C)NC(=O)[C@@H]1CCCN1)C(C)C)[C@@H](C)O)[C@@H](C)CC)C(=O)N[C@@H](CC(C)C)C(=O)N[C@H](C(=O)N[C@@H](CCCNC(=N)N)C(=O)N1CCC[C@H]1C(=O)N[C@@H](CCCNC(=N)N)C(=O)N[C@@H](Cc1ccc(O)cc1)C(N)=O)[C@@H](C)O)C(=O)O [15a, [K^30(E-Prop)]hPP2–36] (H-PLEPVYPGDNATPEQMAQYAADLRRYINK([γGlu-Propionyl])LTRPRY-NH2)	937	70 ± 3	1.3	88 ± 4	> 1000	99 ± 4	> 1000	88 ± 6
CCCCCCCC(=O)N[C@@H](CCC(=O)NCCCC[C@H](NC(=O)[C@H](CC(N)=O)NC(=O)[C@@H](NC(=O)[C@H](Cc1ccc(O)cc1)NC(=O)[C@H](CCCNC(=N)N)NC(=O)[C@H](CCCNC(=N)N)NC(=O)[C@H](CC(C)C)NC(=O)[C@H](CC(=O)O)NC(=O)[C@H](C)NC(=O)[C@H](C)NC(=O)[C@H](Cc1ccc(O)cc1)NC(=O)[C@H](CCC(N)=O)NC(=O)[C@H](C)NC(=O)[C@H](CCSC)NC(=O)[C@H](CCC(N)=O)NC(=O)[C@H](CCC(=O)O)NC(=O)[C@@H]1CCCN1C(=O)[C@@H](NC(=O)[C@H](C)NC(=O)[C@H](CC(N)=O)NC(=O)[C@H](CC(=O)O)NC(=O)CNC(=O)[C@@H]1CCCN1C(=O)[C@H](Cc1ccc(O)cc1)NC(=O)[C@@H](NC(=O)[C@@H]1CCCN1C(=O)[C@H](CCC(=O)O)NC(=O)[C@H](CC(C)C)NC(=O)[C@@H]1CCCN1)C(C)C)[C@@H](C)O)[C@@H](C)CC)C(=O)N[C@@H](CC(C)C)C(=O)N[C@H](C(=O)N[C@@H](CCCNC(=N)N)C(=O)N1CCC[C@H]1C(=O)N[C@@H](CCCNC(=N)N)C(=O)N[C@@H](Cc1ccc(O)cc1)C(N)=O)[C@@H](C)O)C(=O)O [16a, [K^30(E-Capr)]hPP2–36] (H-PLEPVYPGDNATPEQMAQYAADLRRYINK([γGlu-Octanoyl])LTRPRY-NH2)	386	75 ± 5	1.2	82 ± 4	> 1000	84 ± 6	> 1000	85 ± 5

Other lines, results leading:

EC50 (hY5R) [nM]	Emax (hY5R) [%]	EC50 (hY4R) [nM]	Emax (hY4R) [%]	EC50 (hY1R) [nM]	Emax (hY1R) [%]	EC50 (hY2R) [nM]	Emax (hY2R) [%]	SMILES
14.9	87 ± 5	1.5	86 ± 5	204	87 ± 5	49.6	101 ± 7	CCCCCCCCCCCC(=O)N[C@@H](CCC(=O)NCCCC[C@H](NC(=O)[C@H](C)NC(=O)[C@H](Cc1ccc(O)cc1)NC(=O)[C@H](CCC(N)=O)NC(=O)[C@H](C)NC(=O)[C@H](CCSC)NC(=O)[C@H](CCC(N)=O)NC(=O)[C@H](CCC(=O)O)NC(=O)[C@@H]1CCCN1C(=O)[C@@H](NC(=O)[C@H](C)NC(=O)[C@H](CC(N)=O)NC(=O)[C@H](CC(=O)O)NC(=O)CNC(=O)[C@@H]1CCCN1C(=O)[C@H](Cc1ccc(O)cc1)NC(=O)[C@@H](NC(=O)[C@@H]1CCCN1C(=O)[C@H](CCC(=O)O)NC(=O)[C@H](CC(C)C)NC(=O)[C@@H]1CCCN1)C(C)C)[C@@H](C)O)C(=O)N[C@@H](CC(=O)O)C(=O)N[C@@H](CC(C)C)C(=O)N[C@@H](CCCNC(=N)N)C(=O)N[C@@H](CCCNC(=N)N)C(=O)N[C@@H](Cc1ccc(O)cc1)C(=O)N[C@H](C(=O)N[C@@H](CC(N)=O)C(=O)N[C@@H](CCSC)C(=O)N[C@@H](CC(C)C)C(=O)N[C@H](C(=O)N[C@@H](CCCNC(=N)N)C(=O)N1CCC[C@H]1C(=O)N[C@@H](CCCNC(=N)N)C(=O)N[C@@H](Cc1ccc(O)cc1)C(N)=O)[C@@H](C)O)[C@@H](C)CC)C(=O)O [compound 11, [K^22(E-Laur)]hPP2–36] (H-PLEPVYPGDNATPEQMAQYAK([γGlu-Lauroyl])DLRRYINMLTRPRY-NH2)
26	84 ± 4	3.1	91 ± 4	> 1000	84 ± 4	> 1000	88 ± 7	CCCCCCCC(=O)N[C@@H](CCC(=O)NCCCC[C@H](NC(=O)[C@H](C)NC(=O)[C@H](Cc1ccc(O)cc1)NC(=O)[C@H](CCC(N)=O)NC(=O)[C@H](C)NC(=O)[C@H](CCSC)NC(=O)[C@H](CCC(N)=O)NC(=O)[C@H](CCC(=O)O)NC(=O)[C@@H]1CCCN1C(=O)[C@@H](NC(=O)[C@H](C)NC(=O)[C@H](CC(N)=O)NC(=O)[C@H](CC(=O)O)NC(=O)CNC(=O)[C@@H]1CCCN1C(=O)[C@H](Cc1ccc(O)cc1)NC(=O)[C@@H](NC(=O)[C@@H]1CCCN1C(=O)[C@H](CCC(=O)O)NC(=O)[C@H](CC(C)C)NC(=O)[C@@H]1CCCN1)C(C)C)[C@@H](C)O)C(=O)N[C@@H](CC(=O)O)C(=O)N[C@@H](CC(C)C)C(=O)N[C@@H](CCCNC(=N)N)C(=O)N[C@@H](CCCNC(=N)N)C(=O)N[C@@H](Cc1ccc(O)cc1)C(=O)N[C@H](C(=O)N[C@@H](CC(N)=O)C(=O)N[C@@H](CCSC)C(=O)N[C@@H](CC(C)C)C(=O)N[C@H](C(=O)N[C@@H](CCCNC(=N)N)C(=O)N1CCC[C@H]1C(=O)N[C@@H](CCCNC(=N)N)C(=O)N[C@@H](Cc1ccc(O)cc1)C(N)=O)[C@@H](C)O)[C@@H](C)CC)C(=O)O [compound 10, [K^22(E-Capr)]hPP2–36] (H-PLEPVYPGDNATPEQMAQYAK([γGlu-Octanoyl])DLRRYINMLTRPRY-NH2)
